Test results from patent publication US7307063B2, “Melanocortin metallopeptides for treatment of sexual dysfunction” (Palatin Technologies, Inc., priority 2001, dated 2007).
Non-standard residues stand in square brackets, D forms with d. No end group written: not given here. Ac6c = NC1(C(=O)O)CCCCC1; Nle = CCCC[C@H](N)C(=O)O

Columns and labels:
[1] = molecular target: T1, MC1-R (Mus musculus, UniProt Q01727); experiment: Competitive binding assay: inhibition of 125I-NDP-α-MSH binding to membranes from B16-F10 mouse melanoma cells
T1 construct: MC1-R membranes were isolated from B16—F10 mouse melanoma cells; endogenous in cells; host or cells: B16-F10 mouse melanoma cells
T1 sequence (Q01727 whole entry): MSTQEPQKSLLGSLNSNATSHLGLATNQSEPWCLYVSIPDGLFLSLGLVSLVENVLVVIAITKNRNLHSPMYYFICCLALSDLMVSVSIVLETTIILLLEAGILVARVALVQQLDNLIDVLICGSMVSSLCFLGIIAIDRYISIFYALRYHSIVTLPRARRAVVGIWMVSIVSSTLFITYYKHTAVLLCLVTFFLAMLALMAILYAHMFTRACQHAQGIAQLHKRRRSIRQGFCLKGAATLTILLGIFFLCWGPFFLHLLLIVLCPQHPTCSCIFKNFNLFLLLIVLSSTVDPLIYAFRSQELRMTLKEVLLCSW
Method in brief: (§1)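 Rhenium-complexed test peptides at a chosen concentration were assayed for inhibition of 125I-NDP-α-MSH binding to receptor membranes (HEK-293 for cloned human subtypes; B16-F10 cells for MC1-R). Non-specific binding was defined with 1 μM α-MSH, and cpm were normalized to specific binding to give percent inhibition.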

[2] = molecular target: T2, hMC3-R (Homo sapiens, UniProt P41968); experiment: Competitive binding assay: inhibition of 125I-NDP-α-MSH binding to HEK-293 membranes with cloned human receptor subtype 3; conditions: Table 1; 1 μM Re-complexed peptide
T2 construct: expressed in transfected cells; host or cells: HEK-293
T2 sequence (P41968 whole entry): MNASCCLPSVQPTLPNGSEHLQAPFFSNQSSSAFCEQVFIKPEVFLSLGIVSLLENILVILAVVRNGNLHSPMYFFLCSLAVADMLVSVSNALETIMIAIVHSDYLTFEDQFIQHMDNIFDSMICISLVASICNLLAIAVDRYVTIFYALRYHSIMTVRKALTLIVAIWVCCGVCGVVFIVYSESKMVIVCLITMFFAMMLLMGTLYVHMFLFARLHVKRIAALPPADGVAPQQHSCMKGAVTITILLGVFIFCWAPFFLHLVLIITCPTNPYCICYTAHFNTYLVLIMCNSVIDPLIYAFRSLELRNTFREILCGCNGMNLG
Protocol: Rhenium-complexed metallopeptides of the formulas given in Table 1 were prepared, with the metallopeptides complexed with rhenium using the rhenium transfer agent ReOCl3(PPh3)2 in the presence of 1,8-Diazabicyclo[5,4,0] undec-7-ene as a base, as disclosed in International Application PCT/US00/16396, filed Jun. 14, 2000, Melanocortin Metallopeptide Constructs, Combinatorial Libraries and Applications, incorporated by reference herein. Affinities of compounds were measured using membranes from HEK-293 cells containing cloned human melanocortin receptor subtypes 3, 4 and 5. MC1-R membranes were isolated from B16—F10 mouse melanoma cells. The assay tube also contained a chosen concentration of the test peptide of this invention, complexed to a rhenium metal ion as indicated, for determining its efficacy in inhibiting the binding of ^125I-NDP-α-MSH to its receptor. Non-specific binding was measured by complete inhibition of binding of ^125I-NDP-α-MSH in the assay with the presence of 1 μM α-MSH. 100% specific binding was defined as the difference in radioactivity (cpm) bound to cell membranes in the absence and presence of 1 μM α-MSH. The cpm obtained in presence of test compounds were normalized with respect to 100% specific binding to determine the percent inhibition of ^125I-NDP-α-MSH binding.

[3] = molecular target: T3, MC4-R (Homo sapiens, UniProt P32245); experiment: Competitive binding assay: inhibition of 125I-NDP-α-MSH binding to HEK-293 membranes with cloned human receptor subtype 4
T3 construct: expressed in transfected cells; host or cells: HEK-293
T3 sequence (P32245 whole entry): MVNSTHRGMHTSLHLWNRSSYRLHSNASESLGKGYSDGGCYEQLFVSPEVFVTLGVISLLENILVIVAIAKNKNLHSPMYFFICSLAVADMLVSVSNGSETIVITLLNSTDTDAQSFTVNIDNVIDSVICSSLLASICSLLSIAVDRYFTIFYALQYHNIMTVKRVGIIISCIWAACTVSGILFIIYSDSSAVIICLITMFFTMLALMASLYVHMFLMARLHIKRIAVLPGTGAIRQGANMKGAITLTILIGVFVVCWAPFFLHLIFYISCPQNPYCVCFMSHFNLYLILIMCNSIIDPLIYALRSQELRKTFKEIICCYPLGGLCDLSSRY
Method in brief: as §1

[4] = molecular target: T4, hMC5-R (Homo sapiens, UniProt P33032); experiment: Competitive binding assay: inhibition of 125I-NDP-α-MSH binding to HEK-293 membranes with cloned human receptor subtype 5
T4 construct: expressed in transfected cells; host or cells: HEK-293
T4 sequence (P33032 whole entry): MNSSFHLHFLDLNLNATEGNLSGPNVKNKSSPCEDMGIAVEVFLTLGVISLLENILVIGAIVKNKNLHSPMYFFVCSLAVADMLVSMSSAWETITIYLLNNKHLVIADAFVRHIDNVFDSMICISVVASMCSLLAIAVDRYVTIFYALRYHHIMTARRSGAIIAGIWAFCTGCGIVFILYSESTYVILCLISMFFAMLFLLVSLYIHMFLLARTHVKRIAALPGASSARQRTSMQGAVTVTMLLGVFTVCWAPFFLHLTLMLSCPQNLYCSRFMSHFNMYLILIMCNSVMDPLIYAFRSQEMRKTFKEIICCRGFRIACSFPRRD
Method in brief: as §1

[5] = molecular target: T3, MC4-R; experiment: Functional activity assay: intracellular cAMP in HEK-293 cells expressing MC4-R; type: cell-based; conditions: Re-complexed peptide
Protocol: Rhenium-complexed metallopeptides were prepared, with functional evaluation of peptides at MC1-R and MC4-R performed by measuring the accumulation of intracellular cAMP in HEK-293 cells expressing MC4-R or B16-F10 mouse melanoma cells expressing MC1-R. Antagonistic activity was determined by measuring the inhibition of α-MSH-induced cAMP levels following exposure to peptide. Cells, suspended in Earle's Balanced Salt Solution containing 10 mM HEPES, pH 7.5, 5 mM MgCl2, 1 mM glutamine, 0.1% albumin and 0.6 mM 3-isobutyl-1-methyl-xanthine, a phosphodiesterase inhibitor, were plated in 96 well plates at a density of 0.5×10^5 cells per well. Cells were incubated with the test peptides in the presence or absence of α-MSH for 1 hour at 37° C. cAMP levels were measured by EIA (Amersham) in the cell lysates. Data analysis and EC50 values were determined using nonlinear regression analysis with Prism Graph-Pad software.

[6] = system: Male Sprague-Dawley rats; experiment: Penile erection behavior dose response animal studies; type: in vivo, rat
Protocol: For behavioral experiments test solutions of rhenium-complexed metallopeptides were freshly prepared in DMSO and diluted in saline. Male Sprague-Dawley rats (Taconic) weighing 200-250 g were kept on a 12 hour on/off light cycle with food and water ad libitum. All behavioral studies were performed between 10 a.m. and 5 p.m. Groups of 3-10 rats were treated with the rhenium-complexed metallopeptides at a variety of doses via intravenous (IV) injection. In a second experimental paradigm, rats were treated a selected compound intranasally (IN) using a micropipet to deliver 25 μl of solution into one nostril. Immediately after treatment, rats were placed into individual Lucite cages (27 cm long, 16 cm wide and 25 cm high) for behavioral observation.

[7] = system: Male Sprague-Dawley rats; experiment: Combination penile erection behavior studies: antagonist IV before IN agonist; type: in vivo, rat; conditions: effect induced by 50 µg/kg intranasal Ac-Nle-cyclo(-Asp-His-D-Phe-Arg-Trp-Lys)-OH;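 for Mean Penile Erections/Rat: Erections counted over 30 min observation after IN dosing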;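 for Percent with Penile Erections: Erections counted over 30 min observation after IN dosing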
[8] = molecular target: T5, hMC2-R (Homo sapiens, UniProt P41968); experiment: Competitive binding assay of additional compounds, Table 6 hMC2-R; conditions: 1 μM, mean of triplicate
T5 construct: expressed in transfected cells; host or cells: HEK-293
T5 sequence (P41968 whole entry): as the sequence (P41968 whole entry) above

[9] = system: Male Sprague-Dawley rats; experiment: Combination penile erection behavior studies: antagonist IV before IN agonist; type: in vivo, rat;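 for Mean Penile Erections/Rat: Erections counted over 30 min observation after IN dosing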;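 for Percent with Penile Erections: Erections counted over 30 min observation after IN dosing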
Protocol: Conditions were as in Example 3 except as noted. Groups of 5-6 rats received an IV dose of either placebo or antagonist 5 minutes prior to an IN dose of either placebo or agonist. Two antagonists were used: ReO[Heptanoyl-Ser(Bzl)-D-Nal 2′-Arg-Trp-Cys-NH2] and SHU9119 (Hruby V J, Lu D, Sharma S D, et al. J Med Chem 38:3454-3461 (1995)), Ac-Nle-cyclo(-Asp-His-D-Nal 2′-Arg-Trp-Lys)-NH2. The agonist used was Ac-Nle-cyclo(-Asp-His-D-Phe-Arg-Trp-Lys)-OH. Immediately after IN treatment, rats were placed into individual Lucite cages for observation. […] In combination studies, the antagonist was dosed IV 5 minutes prior to a 50 μg/kg IN dose of Ac-Nle-cyclo(-Asp-His-D-Phe-Arg-Trp-Lys)-OH.
These studies were conducted as described above in Example 4 with metallopeptide antagonists administered IV five minutes before IN administration of 50 μg/kg Ac-Nle-cyclo(-Asp-His-D-Phe-Arg-Trp-Lys)-OH. […] The potency of these antagonists also correlated with their relative binding affinities in the in vitro binding assays.

[10] = Table 1, 1 μM Re-complexed peptide
[11] = Table 6, 1 μM, mean of triplicate
[12] = IV 50 μg/kg, 30 min observation
[13] = agonist alone 50 μg/kg IN, arm of the ReO[Heptanoyl-Ser(Bzl)-D-Nal 2′-Arg-Trp-Cys-NH2] study
[14] = agonist alone 50 μg/kg IN, arm of the SHU9119 study
[15] = combination: antagonist 5 μg/kg IV 5 min prior to 50 μg/kg IN Ac-Nle-cyclo(-Asp-His-D-Phe-Arg-Trp-Lys)-OH

Heptanoyl-Ser(Bzl)-D-Nal 2′-Arg-D-Trp-Cys-NH2
% Inhibition of Binding MC1-R [1, 10]: 1%
% Inhibition of Binding hMC3-R [2]: 6%
% Inhibition of Binding hMC4-R [3, 10]: 66%
% Inhibition of Binding hMC5-R [4, 10]: 60%
Functional activity at MC4-R (cAMP accumulation; inhibition of α-MSH-induced cAMP) [5]: MC4-R antagonists
Mean Penile Erections/Rat ([6]; IV 150 μg/kg, 30 min observation): 0
Induction of penile erections (PEs) in rat model, in words ([6]; rats, IV): inactive in inducing PEs
Percent PE Inhibition ([7]; antagonist 200 μg/kg IV): 50%
Percent PE Inhibition ([7]; antagonist 500 μg/kg IV): 40%

NH2(CH2)6CO-Ser(Bzl)-D-Nal 2′-Arg-D-Trp-Cys-NH2
% Inhibition of Binding MC1-R [1, 11]: 6%
% Inhibition of Binding hMC4-R [3, 11]: 92%
% Inhibition of Binding hMC5-R [4, 11]: 83%
% Inhibition of Binding hMC2-R [8]: 58%
Functional activity at MC4-R (cAMP accumulation; inhibition of α-MSH-induced cAMP) [5]: MC4-R antagonists

3′-Br Phenyl acetyl-Arg-Arg-D-Phe(4′-Cl)-Cys-Trp-NH2
% Inhibition of Binding MC1-R [1, 10]: 97%
% Inhibition of Binding MC1-R [1, 11]: 91%
% Inhibition of Binding hMC4-R [3, 10]: 100%
% Inhibition of Binding hMC4-R [3, 11]: 92%
% Inhibition of Binding hMC5-R [4, 11]: 89%
% Inhibition of Binding hMC2-R [8]: 48%
Functional activity at MC4-R (cAMP accumulation; inhibition of α-MSH-induced cAMP) [5]: MC4-R agonists
Mean Penile Erections/Rat [6, 12]: 0.5

Ac-Nle-cyclo(-Asp-His-D-Phe-Arg-Trp-Lys)-OH
Mean Penile Erections/Rat [9, 13]: 1.2 ± 0.3
Percent with Penile Erections [9, 13]: 83%
Mean Penile Erections/Rat [9, 14]: 1.6 ± 0.2
Percent with Penile Erections [9, 14]: 100%

Ac-Nle-cyclo(-Asp-His-D-Nal 2′-Arg-Trp-Lys)-NH2
Mean Penile Erections/Rat ([9]; antagonist alone, 5 μg/kg IV): 0
Percent with Penile Erections ([9]; antagonist alone, 5 μg/kg IV): 0%
Mean Penile Erections/Rat [9, 15]: 0
Percent with Penile Erections [9, 15]: 0%
Effect on erectile behavior induced by Ac-Nle-cyclo(-Asp-His-D-Phe-Arg-Trp-Lys)-OH, in words ([9]; rats, antagonist IV before IN agonist): blocked

Ac-Nle-Ala-His-D-Phe-Arg-Trp-Cys-NH2 ({Ac-Nle-Ala-H2N}-[dF]RWC-NH2; also: ReO complex)
% Inhibition of Binding MC1-R [1, 10]: 91%
% Inhibition of Binding hMC3-R [2]: 70%
% Inhibition of Binding hMC4-R [3, 10]: 89%
% Inhibition of Binding hMC5-R [4, 10]: 93%
Functional activity at MC4-R (cAMP accumulation; inhibition of α-MSH-induced cAMP) [5]: MC4-R agonists
% with Penile Erections ([6]; IN 10 μg/kg, 10 rats): 70%
Mean Penile Erections/Rat ([6]; IN 10 μg/kg, 10 rats): 0.9 ± 0.2
Mean Penile Erections/Rat ([6]; IV 10 μg/kg, 30 min observation): 0.25
Mean Penile Erections/Rat ([6]; IV 30 μg/kg, 30 min observation): 0.75
Mean Penile Erections/Rat [6, 12]: 1.0

1-amino-1-cyclohexane carboxyl-D-Phe-Arg-Trp-Cys-NH2 ([Ac6c][dF]RWC-NH2; N-terminus assumed; SMILES N=C(N)NCCC[C@H](NC(=O)[C@@H](Cc1ccccc1)NC(=O)C1(N)CCCCC1)C(=O)N[C@@H](Cc1c[nH]c2ccccc12)C(=O)N[C@@H](CS)C(N)=O)
% Inhibition of Binding MC1-R [1, 11]: 11%
% Inhibition of Binding hMC4-R [3, 11]: 1%
% Inhibition of Binding hMC5-R [4, 11]: 16%
% Inhibition of Binding hMC2-R [8]: 0%
